Laboratory results taken from ChEMBL document CHEMBL1142622, “Inhibition of phospholipase cgamma1 and cancer cell proliferation by triterpene esters from Uncaria rhynchophylla” (J Nat Prod, 2000).
Converted amounts (≈) assume the structure as drawn.

Legend:
[1] = target: T1, 1-phosphatidylinositol 4,5-bisphosphate phosphodiesterase gamma-1 (Homo sapiens, UniProt P19174); assay: Inhibition of PLCgamma1
T1 sequence (P19174 whole entry): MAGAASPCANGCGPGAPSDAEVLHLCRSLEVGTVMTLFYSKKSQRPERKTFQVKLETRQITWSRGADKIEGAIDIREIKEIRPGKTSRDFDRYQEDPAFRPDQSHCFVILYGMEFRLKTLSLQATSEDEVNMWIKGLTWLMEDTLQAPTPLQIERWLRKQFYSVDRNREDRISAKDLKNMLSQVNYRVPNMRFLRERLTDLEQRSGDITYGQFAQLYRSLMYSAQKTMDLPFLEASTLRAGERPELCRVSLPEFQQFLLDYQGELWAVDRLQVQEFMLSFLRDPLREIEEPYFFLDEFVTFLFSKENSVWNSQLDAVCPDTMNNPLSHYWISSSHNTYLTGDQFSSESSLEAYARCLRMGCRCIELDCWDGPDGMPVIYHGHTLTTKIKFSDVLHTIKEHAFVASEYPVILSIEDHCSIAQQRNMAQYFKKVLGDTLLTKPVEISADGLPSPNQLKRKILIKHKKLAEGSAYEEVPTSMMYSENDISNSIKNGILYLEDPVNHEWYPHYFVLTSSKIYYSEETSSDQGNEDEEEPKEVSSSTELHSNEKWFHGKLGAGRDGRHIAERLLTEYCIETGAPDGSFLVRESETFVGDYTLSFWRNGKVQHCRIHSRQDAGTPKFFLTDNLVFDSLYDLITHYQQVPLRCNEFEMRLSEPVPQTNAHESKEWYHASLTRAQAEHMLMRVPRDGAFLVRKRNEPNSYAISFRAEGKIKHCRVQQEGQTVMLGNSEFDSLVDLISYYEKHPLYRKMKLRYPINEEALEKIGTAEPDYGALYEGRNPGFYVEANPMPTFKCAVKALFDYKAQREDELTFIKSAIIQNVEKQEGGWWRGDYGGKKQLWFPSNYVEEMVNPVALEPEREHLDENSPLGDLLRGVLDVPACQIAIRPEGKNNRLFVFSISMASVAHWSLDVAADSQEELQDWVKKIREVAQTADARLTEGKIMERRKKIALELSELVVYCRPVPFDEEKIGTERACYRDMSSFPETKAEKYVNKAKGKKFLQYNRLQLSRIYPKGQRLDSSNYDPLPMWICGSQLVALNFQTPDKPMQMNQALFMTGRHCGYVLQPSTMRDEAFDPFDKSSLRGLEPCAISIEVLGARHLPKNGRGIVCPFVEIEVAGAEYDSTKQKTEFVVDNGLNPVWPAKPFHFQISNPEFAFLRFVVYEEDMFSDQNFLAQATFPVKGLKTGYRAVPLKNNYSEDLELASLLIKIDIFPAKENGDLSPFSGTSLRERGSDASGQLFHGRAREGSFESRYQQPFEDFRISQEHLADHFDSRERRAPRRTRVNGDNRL

NIH3T3 = assay: Inhibition of PDGF-induced phosphotidyl inositol turnover in PLCgamma1 expressing mouse NIH3T3 cells; type: functional, cell-based
HCT-15 = assay: Antiproliferative activity against PLCgamma1 expressing human HCT15 cells; type: functional, cell-based
HT1197 = assay: Antiproliferative activity against PLCgamma1 expressing human HT1197 cells; type: functional, cell-based

| SMILES | IC50 [1] | IC50 (NIH3T3) | IC50 (HCT-15) | IC50 (HT1197) |
| --- | --- | --- | --- | --- |
| O=c1cc(-c2ccc(O)c(-c3c(O)cc(O)c4c(=O)cc(-c5ccc(O)cc5)oc34)c2)oc2cc(O)cc(O)c12 [AMENTOFLAVONE] | 29 µM | 9.2 µM |  |  |
| COc1cccc2c1C(=O)c1c(O)c3c(c(O)c1C2=O)C[C@@](O)(C(=O)CO)C[C@@H]3O[C@H]1C[C@H](N)[C@H](O)[C@H](C)O1 [DOXORUBICIN] |  |  | 13.4 µg/mL (≈ 24.7 µM) | 0.03 µg/mL (≈ 0.0552 µM) |
